ChEMBL document CHEMBL1201862, “PubChem BioAssay data set” (2004)
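A five-concentration, 48-hour dose response in 96-well plates underlies each endpoint, interpolated linearly between surrounding concentrations. Here, GI50 denotes the concentration required for 50% inhibition of growth.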 Calls of active or inactive are those of the source. No stated cut-off is given here; in the data, active = GI50 up to about 1.1 µM and inactive = higher.

Experiments:
Assay in all cases: growth of human tumour cells (NCI), 48 h
KM12 = tested on: KM12
CCRF-CEM = tested on: CCRF-CEM
NCI-H522 = tested on: NCI-H522
MDA-MB-231 = tested on: MDA-MB-231
A498 = tested on: A498
RPMI-8226 = tested on: RPMI-8226
786-0 = tested on: 786-0
SK-MEL-28 = tested on: SK-MEL-28
MOLT-4 = tested on: MOLT-4
MDA-MB-435 = tested on: MDA-MB-435
UACC-257 = tested on: UACC-257
SN12C = tested on: SN12C
HCT-116 = tested on: HCT-116
K562 = tested on: K562
OVCAR-3 = tested on: OVCAR-3
A549 = tested on: A549
SR = tested on: SR

SMILES	GI50 (KM12)	GI50 (CCRF-CEM)	GI50 (NCI-H522)	GI50 (MDA-MB-231)	GI50 (A498)	GI50 (RPMI-8226)	GI50 (786-0)	GI50 (SK-MEL-28)	GI50 (MOLT-4)	GI50 (MDA-MB-435)	GI50 (UACC-257)	GI50 (SN12C)	GI50 (HCT-116)	GI50 (K562)	GI50 (OVCAR-3)	GI50 (A549)	GI50 (SR)
N=c1oc2cc(O)ccc2cc1C(=O)Nc1ccccn1	55 µM (inactive)	27.8 µM (inactive)	3.43 µM (inactive)	54.3 µM (inactive)	24.7 µM (inactive)	33.7 µM (inactive)	16.4 µM (inactive)	76.7 µM (inactive)	1.78 µM (inactive)	44.5 µM (inactive)	> 100 µM (inactive)	62.2 µM (inactive)	56.1 µM (inactive)	26.5 µM (inactive)	72.4 µM (inactive)	> 100 µM (inactive)	
O=C1CC(C(=O)N2CCCCC2)n2c(=O)n(-c3ccccc3)c(=O)n2C1 (configuration not stated)	> 100 µM (inactive)		> 100 µM (inactive)	> 100 µM (inactive)			> 100 µM (inactive)				> 100 µM (inactive)		> 100 µM (inactive)		> 100 µM (inactive)	> 100 µM (inactive)	
COC(=O)c1ccccc1C1CN=NC12Cc1c(C)cc(C)cc1C2=O (configuration not stated)	> 100 µM (inactive)	> 100 µM (inactive)	8.34 µM (inactive)	45.4 µM (inactive)	> 100 µM (inactive)		> 100 µM (inactive)	> 100 µM (inactive)	> 100 µM (inactive)	> 100 µM (inactive)	> 100 µM (inactive)	> 100 µM (inactive)	> 100 µM (inactive)	> 100 µM (inactive)	> 100 µM (inactive)	> 100 µM (inactive)	
O=c1ccn(C2OC(CO)C(P(=O)(O)O)C2O)c(=O)[nH]1 (configuration not stated)	> 100 µM (inactive)	> 100 µM (inactive)	> 100 µM (inactive)	> 100 µM (inactive)	> 100 µM (inactive)	> 100 µM (inactive)	> 100 µM (inactive)	> 100 µM (inactive)	> 100 µM (inactive)		> 100 µM (inactive)	> 100 µM (inactive)	> 100 µM (inactive)	> 100 µM (inactive)	> 100 µM (inactive)	> 100 µM (inactive)	> 100 µM (inactive)
NC(=S)N/N=C1\NC(=O)/C(=C/c2ccc3c(c2)OCO3)S1	20.9 µM (inactive)			25.8 µM (inactive)	14.3 µM (inactive)		33.9 µM (inactive)	24 µM (inactive)	21.4 µM (inactive)	27.1 µM (inactive)	31.6 µM (inactive)	36.7 µM (inactive)	29.1 µM (inactive)		19.2 µM (inactive)	30.6 µM (inactive)	
CC(=O)Oc1cc(Cl)c(C)c2c1[C@H]1CC[C@]3(C)[C@@H](OC(C)=O)CC[C@H]3[C@@H]1CC2	> 100 µM (inactive)	> 100 µM (inactive)	> 100 µM (inactive)	> 100 µM (inactive)	> 100 µM (inactive)	29.5 µM (inactive)	> 100 µM (inactive)	> 100 µM (inactive)	78.2 µM (inactive)	> 100 µM (inactive)	> 100 µM (inactive)	> 100 µM (inactive)	54.6 µM (inactive)	78.5 µM (inactive)	> 100 µM (inactive)	> 100 µM (inactive)	
O=C1c2[nH]c3ccccc3c2CCN2CCCCC12 (configuration not stated)	17.7 µM (inactive)	22.6 µM (inactive)	20.3 µM (inactive)	19.2 µM (inactive)	29.6 µM (inactive)	17.7 µM (inactive)	24 µM (inactive)	37.4 µM (inactive)	17.3 µM (inactive)	16.7 µM (inactive)	17.7 µM (inactive)	35.6 µM (inactive)	23.6 µM (inactive)	23.2 µM (inactive)	19.7 µM (inactive)	24.9 µM (inactive)	
N#CI1OC(C(F)(F)F)(C(F)(F)F)c2ccccc21	17 µM (inactive)	18.7 µM (inactive)	7.19 µM (inactive)	24 µM (inactive)	37.4 µM (inactive)	29.3 µM (inactive)	14.2 µM (inactive)	15.5 µM (inactive)		17.8 µM (inactive)	22.2 µM (inactive)	23.1 µM (inactive)	16.4 µM (inactive)	12.1 µM (inactive)	15.7 µM (inactive)	62.5 µM (inactive)	
COc1ccc(/C=C2\C[C@H]3[C@@H]4CC=C5C[C@@H](OC(C)=O)CC[C@]5(C)[C@H]4CC[C@]3(C)C2=O)cc1OC	0.971 µM (active)	37 µM (inactive)	23.5 µM (inactive)		33 µM (inactive)	11.3 µM (inactive)	38.7 µM (inactive)	> 100 µM (inactive)	5.9 µM (inactive)	48.4 µM (inactive)	19.8 µM (inactive)	42.3 µM (inactive)	38.8 µM (inactive)	7.96 µM (inactive)	> 100 µM (inactive)	28.5 µM (inactive)	24.7 µM (inactive)
COc1ccc2[nH]c3c([N+](=O)[O-])ccc(NCCCN(C)C)c3/c(=N/CCCN(C)C)c2c1	1.08 µM (active)	0.448 µM (active)		1.5 µM (inactive)		0.635 µM (active)	0.94 µM (active)	1.89 µM (inactive)	0.31 µM (active)	7.62 µM (inactive)	> 10 µM (inactive)	1.35 µM (inactive)		1.42 µM (inactive)		1.74 µM (inactive)	0.28 µM (active)
Nc1nc(N)c2c(n1)NC(c1ccccc1)CC(/C=C/c1ccc(Cl)cc1)=N2 (configuration not stated)	3.52 µM (inactive)	4.84 µM (inactive)	1.76 µM (inactive)	3.23 µM (inactive)	15.4 µM (inactive)	3.12 µM (inactive)	3.11 µM (inactive)	13.5 µM (inactive)	1.89 µM (inactive)	3.59 µM (inactive)	2.25 µM (inactive)	8.89 µM (inactive)	1.99 µM (inactive)	2.65 µM (inactive)	5.62 µM (inactive)	12.2 µM (inactive)	
CN1CCc2c(sc3nc(Nc4ccccc4)n(N)c(=O)c23)C1	> 100 µM (inactive)	59.2 µM (inactive)		> 100 µM (inactive)	> 100 µM (inactive)	83 µM (inactive)	> 100 µM (inactive)		65 µM (inactive)		60.4 µM (inactive)	> 100 µM (inactive)	72.3 µM (inactive)	37.1 µM (inactive)	> 100 µM (inactive)	> 100 µM (inactive)	
C=CCOc1ccc(C2c3c(n[nH]c3O)CC(O)(OCC)C2C(=O)OCC)cc1OC (configuration not stated)	> 100 µM (inactive)	> 100 µM (inactive)	> 100 µM (inactive)	> 100 µM (inactive)	> 100 µM (inactive)	> 100 µM (inactive)	> 100 µM (inactive)	> 100 µM (inactive)	> 100 µM (inactive)	> 100 µM (inactive)	> 100 µM (inactive)	> 100 µM (inactive)	> 100 µM (inactive)		> 100 µM (inactive)	> 100 µM (inactive)	
